Conditions: Liquid, Closed cell (Static) method

FCC(F)(F)F [1,1,1,2-tetrafluoroethane]
Conditions | vapor or sublimation pressure [kPa]
243.14 K | 84.1
245.14 K | 92.4
247.14 K | 101.4
249.15 K | 111.1
251.16 K | 121.4
253.15 K | 132.5
255.14 K | 144.3
257.16 K | 157.1
259.17 K | 170.6
261.16 K | 185
263.14 K | 200.2
265.13 K | 216.4
267.13 K | 233.7
269.14 K | 252.1
271.14 K | 271.6
273.13 K | 292.1
275.13 K | 313.9
277.16 K | 337.2
279.16 K | 361.5
281.16 K | 387.3
283.17 K | 414.3
285.14 K | 442.1
287.15 K | 472.3
289.14 K | 503.4
291.14 K | 536.3
293.14 K | 570.9

CCC [propane]
Conditions | vapor or sublimation pressure [kPa]
233.22 K | 111.3
235.21 K | 121.3
237.18 K | 131.7
239.2 K | 143.2
241.22 K | 155.4
243.21 K | 168.2
245.26 K | 182.1
247.13 K | 195.6
249.14 K | 211.1
251.14 K | 227.4
253.14 K | 244.5
255.14 K | 262.5
257.13 K | 281.5
259.15 K | 301.8
261.12 K | 322.7
263.15 K | 345.3
265.14 K | 368.6
267.14 K | 393.2
269.14 K | 419
271.14 K | 446.1
273.14 K | 474.3
275.14 K | 503.9
277.14 K | 535
279.15 K | 567.4
281.15 K | 601.4
283.15 K | 636.7
285.15 K | 673.5
287.14 K | 711.8
289.15 K | 752
291.16 K | 793.7
293.15 K | 836.8

Reference: the NIST ThermoML archive (doi:10.1016/j.jct.2010.11.001)
